Test results taken from PMC10200060, “Inhibition of DAMP actions in the tumoral microenvironment using lactoferrin-glycyrrhizin conjugate for glioblastoma therapy” (Biomaterials Research, 2023).

Columns and labels:
ERK phosphorylation = assay: Western blot of phospho-ERK/ERK in HUVEC; type: cell-based, human; details: 24 h of treatment with HMGB1
Description: Total cellular protein concentration was determined using a BCA Protein Assay Kit (Pierce, Rockford, IL, USA). Equal amounts of protein from cell lysates were loaded onto a 12% sodium dodecyl sulfate–polyacrylamide gel. After electrophoresis, proteins were transferred to polyvinylidene fluoride membranes blocked with 5% bovine serum albumin for 1 h at room temperature and were diluted 1:500 with the indicated primary antibodies (rabbit anti-ERK1/2, anti-phospho-ERK1 and β-actin antibodies [Cell Signaling Technology, INC.]). Then, the membrane was washed 3 times for 15 min with tris-buffered saline containing Tween 20 and was incubated with HRP-conjugated secondary antibody for 1 h at room temperature. After washing three times for another 15 min with Tris-buffered saline with Tween 20, immune complexes were detected with an enriched chemiluminescent reagent (EZ-Western Lumi Femto, DoGen, South Korea) and staining was quantified by densitometry analysis using an Alpha Imager 2200.

U87MG [1] = assay: Wound-healing scratch (cell migration) assay; type: cell-based, human; details: HMGB1 0.1 μg mL^−1, 24 h
Description: A wound-healing scratch assay was performed in U87MG to evaluate the effect of GL, Lf and Lf-GL treatment on the cancer cell migration. Cells were seeded in 100 mm-cell culture dishes, 2.0 × 10^6 cells per dish. After the cells were grown to 80% confluence, a scratch was made through the cell monolayer with a 200 μL pipet tip, and it was washed with PBS. Photographs (4 ×) were taken in each of three different scratch areas, and their location on the dish was marked. GL (50 × 10^–6 M), Lf (5 × 10^–6 M) or Lf-GL (1 × 10^–6 M) dissolved in serum-free medium were added to cells with or without HMGB1 protein (0.1 μg mL^−1). Then, cells were incubated for 24 h, and the same areas were re-photographed. Migration distances were examined using the scale bar.

HUVEC [2] = assay: Capillary tube formation assay; type: cell-based, human; details: HMGB1 (+) control vs HMGB1 (-) control, 24 h
Description: A 24-well plate was coated with of Matrigel® (200 μL, Corning, NY, USA) and was incubated for 30 min in 37℃ incubators. HUVECs were seeded upon a coated Matrigel® 24-well plate (seeding density: 5.0 × 10^4 cells per well). Subsequently, cells were treated with GL (50 × 10^–6 M), Lf (5 × 10^–6 M) or Lf-GL (1 × 10^–6 M) and incubated for 24 h. Then, Calcein AM was added to each well, and the formation of tubes was observed using fluorescence microscopy. These tubes were quantified using Image J.

HUVEC [3] = assay: HMGB1-mediated HUVEC proliferation (CCK-8); type: cell-based, human
Description: (§1) Cell viability was determined using a cell counting kit-8 (CCK-8). U87MG and HUVECs (seeding density: 0.75 × 10^4 cells per well) in 96-well culture plates were treated with GL, Lf, or Lf-GL (25 to 200 × 10^–6 M of GL equivalent concentration) and were incubated for different periods of time (24, 48, and 72 h). After washing with PBS, they were treated with a cell culture medium containing a CCK-8 assay kit (Abbkine) and were incubated at 37 °C and 5% CO2 for 2 h. Then, absorbance was measured at 450 nm in a micro-plate reader (VLBL00D0, Thermo Fisher Scientific). Results were quantified using Sigma Plot (Systat Software, USA). To determine the effect of extracellular HMGB1 in GBM and endothelial cell proliferation, U87MG and HUVECs were seeded in 96-well culture plates (seeding density: 0.75 × 10^4 cells per well) and GL, Lf, or Lf-GL (50 × 10^–6 M GL equivalent concentration) were added to cells with or without HMGB1 protein (U87MG: 0.1 μg mL^−1, and HUVEC: 1 μg mL^−1). Cells were incubated for different periods of time (24, 48, and 72 h).

U87MG [4] = assay: HMGB1-mediated GBM cell proliferation (CCK-8); type: cell-based, human
Description: as §1

rat aortic rings = assay: Aorta ring assay (ex vivo); details: VEGF 25 ng mL^−1 positive control, 14 days
Description: An aorta ring assay was conducted to confirm the anti-angiogenesis effect of Lf-GL ex vivo. A 48-well plate was coated with of Matrigel® (100 μL) and was incubated for 30 min or more in 37℃ incubators. In the meantime, thoracic aortas of 7-week-old male SD rats were excised. Then, the fat layer and outer membrane were removed, and rings approximately 1 mm in length were prepared. The prepared aortic rings were seeded on a coated Matrigel® of 48-well plate and were covered with Matrigel®. (100 μL) Subsequently, the aortic ring was treated with a control (with or without 25 ng mL^−1 of VEGF) or different concentrations of Lf-GL complex. Medium was changed once every two days. Fourteen days after treatment, optical images of sprouting microvessels were obtained using microscopy magnification (× 40 or × 100). Sprouting microvessel area was quantified using Image J and Sigma Plot.
Fig. S14. Significant inhibitory effect of Lf-GL in aortic ring angiogenesis. Optical images of vessel regression in aortic ring with Lf-GL treatment. Aortic ring assay was carried out in 48-well plate coated with Matrigel. VEGF-non treated control represents that aortic ring incubated with normal medium. VEGF-treated control represents that aortic ring incubated with 25 ng mL^-1 VEGF-conditioned medium. […]

Row | Substance | Increase of p-ERK level compared to non-treatment (ERK phosphorylation) [times] | Migration distance more than HMGB1-nontreated cell (U87MG [1]) [μm] | Increase of newly generated micro-vessels (tube number) (HUVEC [2]) [%] | Angiogenic potential (viability) of HUVEC vs control (HUVEC [3]; HMGB1 1 μg mL^−1, day 1) [%] | Angiogenic potential (viability) of HUVEC vs control (HUVEC [3]; HMGB1 1 μg mL^−1, day 2) [%] | Angiogenic potential (viability) of HUVEC vs control (HUVEC [3]; HMGB1 1 μg mL^−1, day 3) [%] | Tumor growth compared to controls not treated with HMGB1 (U87MG [4]; HMGB1 0.1 μg mL^−1, day 1) [%] | Tumor growth compared to controls not treated with HMGB1 (U87MG [4]; HMGB1 0.1 μg mL^−1, day 2) [%] | Tumor growth compared to controls not treated with HMGB1 (U87MG [4]; HMGB1 0.1 μg mL^−1, day 3) [%] | Increase of outgrowth of endothelial tubules (rat aortic rings) [%]
1 | HMGB1: High-mobility group box-1 protein added to cells as stimulus | 2.3 | 121.3 ± 42.8 | 21.0 ± 2.1 | 108.2 ± 7.9 | 137.9 ± 12.3 | 169.8 ± 18.1 | 110.7 ± 8.2 | 133.4 ± 1.3 | 140.7 ± 5.2 | –
2 | VEGF [reference compound] | – | – | – | – | – | – | – | – | – | 51.1 ± 105.2
